Tests used:
Format in all cases: in vivo
Scirpus juncoides = test: Test for Herbicidal Effect in Flooding Treatment (#1), SCIJU; details: flooding treatment at seeding, dose 2 kg/ha, visual observation on day 21
Procedure, shortened: (§1)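 Sieved soil in cups was flooded and left 24 h before weed seeds were sown. Compounds in acetone, diluted with Tween 80-containing water, were dropped over the whole surface at 2 kg/ha. After 21 days in a glasshouse, growth inhibition was scored visually from 0 (<10%) to 5 (≥90% or complete withering).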

Monochoria vaginalis = test: Test for Herbicidal Effect in Flooding Treatment (#1), MONVA; details: flooding treatment at seeding, dose 2 kg/ha, visual observation on day 21
Procedure, shortened: as §1

[1] = test system: Echinochloa crus-galli (L.) P. Beauv. var. formosensis Ohwi; test: Test for Herbicidal Effect in Flooding Treatment (#1), ECHDG; details: flooding treatment at seeding, dose 2 kg/ha, visual observation on day 21
Procedure, shortened: as §1

Cyperus microiria = test: Test for Herbicidal Effect in Flooding Treatment (#1), CYMIC; details: flooding treatment at seeding, dose 2 kg/ha, visual observation on day 21
Procedure, shortened: as §1

[2] = test system: Echinochloa crus-galli (L.) P. Beauv. var. formosensis Ohwi; test: Test for Herbicidal Effect in Flooding Treatment (#2), ECHDG at 2-2.5 leaf stage; details: for ECHDG (2-2.5L) #2 herbicidal effect (growth inhibition grade): flooding treatment at 2-2.5 leaf stage, dose 0.2 kg/ha, visual observation on day 21
Procedure, shortened: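 Flooded muddy soil was seeded with the weed, and at 2–2.5 leaf stage compound in acetone/Tween 80 water was dropped on the water surface at 0.2 kg/ha. Plants were kept in a glasshouse and scored visually on day 21 from 0 (<10% growth inhibition) to 5 (≥90% or complete withering).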

SMILES | SCIJU #1 herbicidal effect (growth inhibition grade) (Scirpus juncoides) | MONVA #1 herbicidal effect (growth inhibition grade) (Monochoria vaginalis) | ECHDG #1 herbicidal effect (growth inhibition grade) [1] | CYMIC #1 herbicidal effect (growth inhibition grade) (Cyperus microiria) | ECHDG (2-2.5L) #2 herbicidal effect (growth inhibition grade) [2] | inhibition at 200 g/ha ([2]; Echinochloa crus-galli, 504 h, flooding treatment (#2), ECHDG at 2-2.5 leaf stage, dose of 0.2 kg/ha, day 21, visual observation, read-out: growth inhibition effect)
CCOc1ccccc1CS(=O)(=O)c1ncc(Cl)s1 [Compound 1C-8] | 5 (Growth inhibition effect is equal to or greater than 90%, or complete withering is achieved) | 5 (Growth inhibition effect is equal to or greater than 90%, or complete withering is achieved) | 5 (Growth inhibition effect is equal to or greater than 90%, or complete withering is achieved) | 5 (Growth inhibition effect is equal to or greater than 90%, or complete withering is achieved) | 5 (Growth inhibition effect is equal to or greater than 90%, or complete withering is achieved) | 
CCOc1ccc(CS(=O)(=O)c2ncc(Cl)s2)c(C(F)(F)F)c1 [Compound 1C-94] | 5 (Growth inhibition effect is equal to or greater than 90%, or complete withering is achieved) | 5 (Growth inhibition effect is equal to or greater than 90%, or complete withering is achieved) | 5 (Growth inhibition effect is equal to or greater than 90%, or complete withering is achieved) | 5 (Growth inhibition effect is equal to or greater than 90%, or complete withering is achieved) | 5 (Growth inhibition effect is equal to or greater than 90%, or complete withering is achieved) | 
COc1cc(Cl)c(CS(=O)(=O)c2ncc(Cl)s2)c(Cl)c1 [Compound 1C-91] | 5 (Growth inhibition effect is equal to or greater than 90%, or complete withering is achieved) | 5 (Growth inhibition effect is equal to or greater than 90%, or complete withering is achieved) | 5 (Growth inhibition effect is equal to or greater than 90%, or complete withering is achieved) | 5 (Growth inhibition effect is equal to or greater than 90%, or complete withering is achieved) | 5 (Growth inhibition effect is equal to or greater than 90%, or complete withering is achieved) | 
CCOc1ccc(F)c(CS(=O)(=O)c2ncc(Cl)s2)c1F [Compound 1C-82] | 5 (Growth inhibition effect is equal to or greater than 90%, or complete withering is achieved) | 5 (Growth inhibition effect is equal to or greater than 90%, or complete withering is achieved) | 5 (Growth inhibition effect is equal to or greater than 90%, or complete withering is achieved) | 5 (Growth inhibition effect is equal to or greater than 90%, or complete withering is achieved) | 5 (Growth inhibition effect is equal to or greater than 90%, or complete withering is achieved) | 
CCOc1cccc(F)c1CS(=O)(=O)c1ncc(Cl)s1 [Compound 1C-19] | 5 (Growth inhibition effect is equal to or greater than 90%, or complete withering is achieved) | 5 (Growth inhibition effect is equal to or greater than 90%, or complete withering is achieved) | 5 (Growth inhibition effect is equal to or greater than 90%, or complete withering is achieved) | 5 (Growth inhibition effect is equal to or greater than 90%, or complete withering is achieved) | 5 (Growth inhibition effect is equal to or greater than 90%, or complete withering is achieved) | ≥ 90%
CCOc1c(F)ccc(F)c1CS(=O)(=O)c1ncc(Cl)s1 [Compound 1C-27] | 5 (Growth inhibition effect is equal to or greater than 90%, or complete withering is achieved) | 5 (Growth inhibition effect is equal to or greater than 90%, or complete withering is achieved) | 5 (Growth inhibition effect is equal to or greater than 90%, or complete withering is achieved) | 5 (Growth inhibition effect is equal to or greater than 90%, or complete withering is achieved) | 5 (Growth inhibition effect is equal to or greater than 90%, or complete withering is achieved) | 
COc1cccc(CS(=O)(=O)c2ncc(Cl)s2)c1 [Compound 1C-65] | 5 (Growth inhibition effect is equal to or greater than 90%, or complete withering is achieved) | 5 (Growth inhibition effect is equal to or greater than 90%, or complete withering is achieved) | 5 (Growth inhibition effect is equal to or greater than 90%, or complete withering is achieved) | 5 (Growth inhibition effect is equal to or greater than 90%, or complete withering is achieved) | 5 (Growth inhibition effect is equal to or greater than 90%, or complete withering is achieved) | 
CCOc1c(Cl)cc(F)cc1CS(=O)(=O)c1ncc(Cl)s1 [Compound 1C-22] | 5 (Growth inhibition effect is equal to or greater than 90%, or complete withering is achieved) | 5 (Growth inhibition effect is equal to or greater than 90%, or complete withering is achieved) | 5 (Growth inhibition effect is equal to or greater than 90%, or complete withering is achieved) | 5 (Growth inhibition effect is equal to or greater than 90%, or complete withering is achieved) | 5 (Growth inhibition effect is equal to or greater than 90%, or complete withering is achieved) | 
CCCOc1cc(Cl)c(CS(=O)(=O)c2ncc(Cl)s2)c(Cl)c1 [Compound 1C-110] | 5 (Growth inhibition effect is equal to or greater than 90%, or complete withering is achieved) | 5 (Growth inhibition effect is equal to or greater than 90%, or complete withering is achieved) | 5 (Growth inhibition effect is equal to or greater than 90%, or complete withering is achieved) | 5 (Growth inhibition effect is equal to or greater than 90%, or complete withering is achieved) | 5 (Growth inhibition effect is equal to or greater than 90%, or complete withering is achieved) | 
CCOc1c(C)cc(F)cc1CS(=O)(=O)c1ncc(Cl)s1 [Compound 1C-25] | 5 (Growth inhibition effect is equal to or greater than 90%, or complete withering is achieved) | 5 (Growth inhibition effect is equal to or greater than 90%, or complete withering is achieved) | 5 (Growth inhibition effect is equal to or greater than 90%, or complete withering is achieved) | 5 (Growth inhibition effect is equal to or greater than 90%, or complete withering is achieved) | 5 (Growth inhibition effect is equal to or greater than 90%, or complete withering is achieved) | 
O=S(=O)(Cc1cc(Cl)ccc1OC(F)F)c1ncc(Cl)s1 [Compound 1C-39] | 5 (Growth inhibition effect is equal to or greater than 90%, or complete withering is achieved) | 5 (Growth inhibition effect is equal to or greater than 90%, or complete withering is achieved) | 5 (Growth inhibition effect is equal to or greater than 90%, or complete withering is achieved) | 5 (Growth inhibition effect is equal to or greater than 90%, or complete withering is achieved) | 5 (Growth inhibition effect is equal to or greater than 90%, or complete withering is achieved) | 
CCOc1cc(C)c(Cl)cc1CS(=O)(=O)c1ncc(Cl)s1 [Compound 1C-30] | 5 (Growth inhibition effect is equal to or greater than 90%, or complete withering is achieved) | 5 (Growth inhibition effect is equal to or greater than 90%, or complete withering is achieved) | 5 (Growth inhibition effect is equal to or greater than 90%, or complete withering is achieved) | 5 (Growth inhibition effect is equal to or greater than 90%, or complete withering is achieved) | 5 (Growth inhibition effect is equal to or greater than 90%, or complete withering is achieved) | 
COc1cccc(CS(=O)(=O)c2ncc(Cl)s2)c1Cl [Compound 1C-66] | 5 (Growth inhibition effect is equal to or greater than 90%, or complete withering is achieved) | 5 (Growth inhibition effect is equal to or greater than 90%, or complete withering is achieved) | 5 (Growth inhibition effect is equal to or greater than 90%, or complete withering is achieved) | 5 (Growth inhibition effect is equal to or greater than 90%, or complete withering is achieved) | 4 (Growth inhibition effect is equal to or greater than 70%, and less than 90%) | 

Source: patent US20200060276A1, “THIAZOLE COMPOUND AND HERBICIDE” (OAT Agrio Co., Ltd., priority 2017, published 2020)
